These results are taken from patent US20260256925A1, “INDAZOLE DERIVATIVES AS ESTROGEN RECEPTOR DEGRADERS” (REGENTS OF THE UNIVERSITY OF MICHIGAN, priority 2022, published 2026).

Structures are written as SMILES.

Experiment [1] can be described thus: Cell growth assay, WST-8 (compounds B1-B126). Format: cell-based. The conditions noted are these: 96 h; T47D cell line, WST-8, 4 days; read-out: Cell growth inhibition in T47D cell line IC50. The protocol: Cell Growth Assay. The cells are seeded at certain concentration (e.g., at 1500/well) in multi-well plates overnight. Cells are subsequently treated with the compounds. A certain period of time (e.g., 4 days) after the compound treatment, 10% WST-8 reagent is added to the culture medium and incubate under certain condiction (e.g., in a CO2 incubator at 37° C. for 2.5 hours). The absorbance is measured on each sample using a microplate reader at certain wavelength (e.g., 450 nm). The relative absorbance is calculated against the vehicle control from three individually repeats.
Cell Growth Assay. The cells were seeded at 1500/well in 96 well plates overnight. One day after the seeding, they were treated with indicated doses of compounds respectively. 4 days after the compound treatment, 10% WST-8 reagent was added to the culture medium and incubate in a CO2 incubator at 37° C. for 2.5 hours. Before reading, the plate was mixed gently on an orbital shaker for one minute to ensure homogeneous distribution of color. The absorbance was measured of each sample using a microplate reader at a wavelength of 450 nm. The relative absorbance was calculated against the vehicle control from three individually repeats.
Background: Tetrazolium assays rely on reduction of a dye to a coloured formazan, in cell work by metabolically active cells.

The target of experiment [2] is T1, ER (Homo sapiens, UniProt P03372).
T1 construct: endogenous in cells; probably T47D or MCF-7
T1 sequence (P03372 1-595): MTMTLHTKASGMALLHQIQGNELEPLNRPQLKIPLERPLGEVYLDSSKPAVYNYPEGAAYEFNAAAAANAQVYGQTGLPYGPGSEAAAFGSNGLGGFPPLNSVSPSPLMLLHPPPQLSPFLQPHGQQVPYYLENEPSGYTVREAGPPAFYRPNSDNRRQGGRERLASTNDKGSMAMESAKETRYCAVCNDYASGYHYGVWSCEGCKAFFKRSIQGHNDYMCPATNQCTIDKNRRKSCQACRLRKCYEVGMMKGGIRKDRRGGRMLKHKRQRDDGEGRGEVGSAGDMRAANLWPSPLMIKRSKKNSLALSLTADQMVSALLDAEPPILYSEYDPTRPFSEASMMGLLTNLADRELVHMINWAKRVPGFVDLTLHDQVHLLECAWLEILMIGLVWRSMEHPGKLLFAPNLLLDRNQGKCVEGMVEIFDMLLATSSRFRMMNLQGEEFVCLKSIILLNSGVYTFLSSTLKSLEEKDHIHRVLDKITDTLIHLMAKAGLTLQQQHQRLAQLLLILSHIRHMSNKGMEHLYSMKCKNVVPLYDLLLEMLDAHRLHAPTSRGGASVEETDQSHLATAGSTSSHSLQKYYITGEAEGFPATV
Nature of the experiment: In-cell western blot analysis, relative ER percentage (compounds B1-B126). Format: cell-based. The conditions noted are these: ER degradation, 16 hours, read-out: ICW DC50. The protocol:
In-cell western blot analysis. Cells are seeded in multi-well plates (e.g., at 40,000 or 10,000 cells/well). Diluted compounds at certain concentration are added (final 0.5% DMSO) and cells are incubated for a certain period of time (e.g., 16 hours). Formaldehyde (e.g., PBS: FA=9:1) is added and followed by washing with PBS. The cells are blocked with Licor blocking buffer (Li-Cor). The relative ER percentage in treated cells are obtained by comparing the values of treated wells to those in untreated and DMSO-treated wells as 100%.
In-cell western blot analysis. a. seed cells in black-sided/clear bottom 96- or 384-well plates at 40,000 or 10,000 cells/well, overnight; b. add diluted compounds (final 0.5% DMSO), 16 hours. […] RT 2h, gentle shaking. Negative control: cells plus secondary antibodies (no primary antibodies); e. wash×4 with PBS +0.05-0.1% Tween 20, gentel shaking; f. anti-rabbit-680 and anti-mouse-800 (both 1:1000 in LiCor block+0.05% Tween20, RT 1h, gentle shaking, no light. LI-COR: 0.2% to reduce background; g. wash×4 with PBS+0.05% Tween 20, gental shaking; h. add 100 μL or 25 μL of PBS to each well and read on CLX plate reader. The relative ER percentage in treated cells were obtained by comparing the values of treated wells to those in untreated and DMSO-treated wells as 100%.

As usually defined, the IC50 is the concentration needed to halve the response being measured. As for `C[C@@H]1Cc2c(ccc3[nH]ncc23)[C@@H](c2c(F)cc(N3CCC4(CCN(C(=O)CN5Cc6cc7c(cc6C5)C(=O)N(C5CCC(=O)NC5=O)C7=O)CC4)CC3)cc2F)N1CC(F)F` (stereo partly drawn) [Compound B15, 6-(2-(9-(4-((6S,8R)-7-(2,2-difluoroethyl)-8-methyl-6,7,8,9-tetrahydro-3H-pyrazolo[4,3-f]isoquinolin-6-yl)-3,5-difluorophenyl)-3,9-diazaspiro[5.5]undecan-3-yl)-2-oxoethyl)-2-(2,6-dioxopiperidin-3-yl)-6,7-dihydropyrrolo[3,4-f]isoindole-1,3(2H,5H)-dione], in experiment [1], the IC50 is less than 1 nM. In general, DC50 refers to the concentration giving 50% degradation. As for `C[C@@H]1Cc2c(ccc3[nH]ncc23)[C@@H](c2c(F)cc(N3CCC4(CC3)CN(C(=O)CN3CCN5c6cc7c(cc6OC[C@@H]5C3)C(=O)N(C3CCC(=O)NC3=O)C7)C4)cc2F)N1CC(F)F` (stereo partly drawn) [Compound B20, 3-((S)-3-(2-(7-(4-((6S,8R)-7-(2,2-difluoroethyl)-8-methyl-6,7,8,9-tetrahydro-3H-pyrazolo[4,3-f]isoquinolin-6-yl)-3,5-difluorophenyl)-2,7-diazaspiro[3.5]nonan-2-yl)-2-oxoethyl)-8-oxo-1,2,3,4,4a,5,8,10-octahydro-9H-pyrazino[1′,2′: 4,5][1,4]oxazino[2,3-f]isoindol-9-yl)piperidine-2,6-dione], the IC50 in experiment [1] was less than 1 nM. In experiment [2], the DC50 is less than 10 nM. On the same counts, the results for `C[C@@H]1Cc2c(ccc3[nH]ncc23)[C@@H](c2c(F)cc(N3CCC4(CC3)CN(CC(=O)N3CCN5c6cc7c(cc6OC[C@@H]5C3)C(=O)N(C3CCC(=O)NC3=O)C7)C4)cc2F)N1CC(F)F` (stereo partly drawn) [Compound B21, 3-((S)-3-(2-(7-(4-((6S,8R)-7-(2,2-difluoroethyl)-8-methyl-6,7,8,9-tetrahydro-3H-pyrazolo[4,3-f]isoquinolin-6-yl)-3,5-difluorophenyl)-2,7-diazaspiro[3.5]nonan-2-yl)acetyl)-8-oxo-1,2,3,4,4a,5,8,10-octahydro-9H-pyrazino[1′,2′: 4,5][1,4]oxazino[2,3-f]isoindol-9-yl)piperidine-2,6-dione] are less than 1 nM and less than 10 nM. For the compound `C[C@@H]1Cc2c(ccc3[nH]ncc23)[C@@H](c2c(F)cc(N3CC4(CCN(C(=O)CN5CCN6c7cc8c(cc7OC[C@@H]6C5)C(=O)N(C5CCC(=O)NC5=O)C8)CC4)C3)cc2F)N1CC(F)F` (stereo partly drawn) [Compound B22, 3-((S)-3-(2-(2-(4-((6S,8R)-7-(2,2-difluoroethyl)-8-methyl-6,7,8,9-tetrahydro-3H-pyrazolo[4,3-f]isoquinolin-6-yl)-3,5-difluorophenyl)-2,7-diazaspiro[3.5]nonan-7-yl)-2-oxoethyl)-8-oxo-1,2,3,4,4a,5,8,10-octahydro-9H-pyrazino[1′,2′:4,5][1,4]oxazino[2,3-f]isoindol-9-yl)piperidine-2,6-dione], the IC50 in experiment [1] is less than 1 nM. Moreover, in experiment [2], the DC50 was less than 10 nM. The like results for `C[C@@H]1Cc2c(ccc3[nH]ncc23)[C@@H](c2c(F)cc(N3CCC4(CCN(C(=O)CN5CCN6c7cc8c(cc7OC[C@@H]6C5)C(=O)N(C5CCC(=O)NC5=O)C8)CC4)C3)cc2F)N1CC(F)F` (stereo partly drawn) [Compound B23, 3-((S)-3-(2-(2-(4-((6S,8R)-7-(2,2-difluoroethyl)-8-methyl-6,7,8,9-tetrahydro-3H-pyrazolo[4,3-f]isoquinolin-6-yl)-3,5-difluorophenyl)-2,8-diazaspiro[4.5]decan-8-yl)-2-oxoethyl)-8-oxo-1,2,3,4,4a,5,8,10-octahydro-9H-pyrazino[1′,2′:4,5][1,4]oxazino[2,3-f]isoindol-9-yl)piperidine-2,6-dione] were, in that order, less than 1 nM and less than 10 nM. For `C[C@@H]1Cc2c(ccc3[nH]ncc23)[C@@H](c2c(F)cc(N3CCC(CN4CCC5(CCOc6c5ccc5c6CN(C6CCC(=O)NC6=O)C5=O)CC4)CC3)cc2F)N1CC(F)F` (stereo partly drawn) [Compound B47, 3-(1-((1-(4-((6S,8R)-7-(2,2-difluoroethyl)-8-methyl-6,7,8,9-tetrahydro-3H-pyrazolo[4,3-f]isoquinolin-6-yl)-3,5-difluorophenyl)piperidin-4-yl)methyl)-7′-oxo-2′,3′,7′,9′-tetrahydro-8′H-spiro[piperidine-4,4′-pyrano[2,3-e]isoindol]-8′-yl)piperidine-2,6-dione], the concentration for half-maximal inhibition (IC50) in experiment [1] is less than 1 nM. Regarding `C[C@@H]1Cc2c(ccc3[nH]ncc23)[C@@H](c2ccc(N3CCC4(CCN(C(=O)CN5Cc6cc7c(cc6C5)C(=O)N(C5CCC(=O)NC5=O)C7)CC4)CC3)cn2)N1CC(F)(F)F` (stereo partly drawn) [Compound B74, 3-(6-(2-(9-(6-((6S,8R)-8-methyl-7-(2,2,2-trifluoroethyl)-6,7,8,9-tetrahydro-3H-pyrazolo[4,3-f]isoquinolin-6-yl)pyridin-3-yl)-3,9-diazaspiro[5.5]undecan-3-yl)-2-oxoethyl)-1-oxo-3,5,6,7-tetrahydropyrrolo[3,4-f]isoindol-2(1H)-yl)piperidine-2,6-dione], the IC50 in experiment [1] lay in the range of 1 to 10 nM. With `COc1c2c(cc3c1CN(C1CCC(=O)NC1=O)C3=O)CN(CC(=O)N1CCC3(CC1)CCN(c1ccc([C@@H]4c5ccc6[nH]ncc6c5C[C@@H](C)N4CC(F)(F)F)nc1)CC3)C2` (stereo partly drawn) [Compound B75, 3-(4-methoxy-6-(2-(9-(6-((6S,8R)-8-methyl-7-(2,2,2-trifluoroethyl)-6,7,8,9-tetrahydro-3H-pyrazolo[4,3-f]isoquinolin-6-yl)pyridin-3-yl)-3,9-diazaspiro[5.5]undecan-3-yl)-2-oxoethyl)-1-oxo-3,5,6,7-tetrahydropyrrolo[3,4-f]isoindol-2(1H)-yl)piperidine-2,6-dione], the IC50 in experiment [1] was less than 1 nM. Take `C[C@H]1Cc2c(ccc3[nH]ncc23)[C@H](c2ccc(N3CC4(CCC(CN5CCN(c6ccc(NC7CCC(=O)NC7=O)cc6F)CC5)CC4)C3)cn2)N1CC(F)(F)F` (stereo partly drawn) [Compound B121, 3-((3-fluoro-4-(4-((2-(6-((6R,8S)-8-methyl-7-(2,2,2-trifluoroethyl)-6,7,8,9-tetrahydro-3H-pyrazolo[4,3-f]isoquinolin-6-yl)pyridin-3-yl)-2-azaspiro[3.5]nonan-7-yl)methyl)piperazin-1-yl)phenyl)amino)piperidine-2,6-dione]: the DC50 in experiment [2] is more than 100 nM. On the same count and under the same terms, as for `C[C@H]1Cc2c(ccc3[nH]ncc23)[C@H](c2cnc(N3CCC4(CC3)CC(CN3CCN(c5ccc(NC6CCC(=O)NC6=O)cc5F)CC3)C4)nc2)N1CC(F)(F)F` (stereo partly drawn) [Compound B122, 3-((3-fluoro-4-(4-((7-(5-((6R,8S)-8-methyl-7-(2,2,2-trifluoroethyl)-6,7,8,9-tetrahydro-3H-pyrazolo[4,3-f]isoquinolin-6-yl)pyrimidin-2-yl)-7-azaspiro[3.5]nonan-2-yl)methyl)piperazin-1-yl)phenyl)amino)piperidine-2,6-dione], the figure is more than 100 nM; as for `C[C@H]1Cc2c(ccc3[nH]ncc23)[C@H](c2cnc(N3CC4(CCC(CN5CCN6c7ccc8c(c7OC[C@@H]6C5)CN([C@@H]5CCC(=O)NC5=O)C8=O)CC4)C3)nc2)N1CC(F)(F)F` [Compound B123, (R)-3-((S)-7-((2-(5-((6R,8S)-8-methyl-7-(2,2,2-trifluoroethyl)-6,7,8,9-tetrahydro-3H-pyrazolo[4,3-f]isoquinolin-6-yl)pyrimidin-2-yl)-2-azaspiro[3.5]nonan-7-yl)methyl)-1-oxo-1,3,5,5a,6,7,8,9-octahydro-2H-pyrazino[1′,2′:4,5][1,4]oxazino[2,3-e]isoindol-2-yl)piperidine-2,6-dione], less than 10 nM.
